# Source: patent publication US11306063B2, “Heterocyclic naphthoquinones derivatives for use in the treatment of cancers including Cushing disease” (Commissariat a l'Energie Atomique et aux Energies …, priority 2016, dated 2022)
# Where two headings read alike, the source gives them in different places.
# How the values were obtained:
# LNCaP cells = experiment: Cytotoxicity assay (PrestoBlue cell viability), LNCaP; type: cell-based; details: Homo sapiens, 48 hours treatment
# Experimental: (§1) Messa, Messa DX5, HCT116, HEK-293, PC-3, LNCaP, HCC827 and H1975 cell lines are issued from the American Type Culture Collection (ATCC).
# (§2) Messa, Messa DX5 and HCT116 were maintained in McCoy's supplemented with 10% fetal bovine serum, and 1% penicillin/streptomycin. PC-3, LNCaP cells were maintained in RPMI medium supplemented with 10% fetal bovine serum, and 1% penicilin/streptomycin and in the case of Messa DX5: 500 nM Doxorubicin was added to maintain selection pressure. HEK293 were maintained in DMEM medium supplemented with 10% fetal bovine serum, and 1% penicillin/streptomycin. Cells were maintained at 37° C. with 5% CO2, 95% air, and humid atmosphere. In the case of hormonal dependent LNCaP cells, 2 μM DiHydroTestosterone (DHT) was added or not—depending on the type of biological assay—for the same incubation period as compounds.
# (§3) For cytotoxicity assays, cells were seeded in 96-well microplates 24 hours before the addition of increasing concentrations of each compound in the culture medium. Cell viability was analyzed 48 hours following addition of each compound through the monitoring of mitochondrial […] activity using PrestoBlue® Cell Viability Reagent (Invitrogen; #A-13261). Paclitaxel was used as a control which is cytotoxic on various cancerous cells although not on chemoresistant MESSA DX5 lineage.
# H1975 cells = experiment: Cytotoxicity assay (PrestoBlue cell viability), H1975; type: cell-based, human; details: Homo sapiens, NCI-H1975, 48 h
# Experimental: as §1, §3
# [1] = target: T1, USP2^CD (purified catalytic domain of USP2) (Homo sapiens, UniProt O75604); experiment: Inhibition of purified USP2^CD enzymatic activity (Ub-AMC or Ub-Rho substrate); type: biochemical; details: for inhibition at 0.01 µM: 0.01 μM compound; for inhibition at 0.05 µM: 0.05 μM compound; for inhibition at 0.1 µM: 0.1 μM compound; for inhibition at 0.5 µM: 0.5 μM compound; for inhibition at 1 µM: 1 μM compound; for inhibition at 5 µM: 5 μM compound; for inhibition at 10 µM: 10 μM compound; for inhibition at 25 µM: 25 μM compound; for inhibition at 50 µM: 50 μM compound; for IC50: read-out: IC50 USP2 CD
# T1 construct: The purified catalytic domain of USP2 (USP2^CD, in-house purified); His; made in house; host or cells: E. coli BL21 Gold
# T1 sequence (O75604 267-599 limits assumed): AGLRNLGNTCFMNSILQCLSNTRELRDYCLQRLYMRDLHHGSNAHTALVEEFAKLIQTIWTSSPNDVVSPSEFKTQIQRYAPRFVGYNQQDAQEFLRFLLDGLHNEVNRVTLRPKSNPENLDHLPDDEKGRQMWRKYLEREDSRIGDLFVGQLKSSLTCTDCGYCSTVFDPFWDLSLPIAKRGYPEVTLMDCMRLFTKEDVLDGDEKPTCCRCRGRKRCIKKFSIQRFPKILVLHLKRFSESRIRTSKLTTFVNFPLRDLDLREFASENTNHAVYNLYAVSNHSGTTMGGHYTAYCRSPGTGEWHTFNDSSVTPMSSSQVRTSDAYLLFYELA
# Experimental: (§4) USP2CD or USP8CD were expressed in E. coli BL21 Gold. Cells were grown in LB Miller to mid-log phase and induced by addition of 0.5 mM IPTG for USP2CD for 5 h at 20° C., while 1 mM IPTG was added for USP8CD for 3 h at 37° C. Then, cells were harvested and frozen at −80° C.
# For His-tagged USP2CD, cells were resuspended in buffer C (10 mM TRIS pH 8.0, 100 mM NaCl, 10 mM Imidazole) and lysed using a sonicator. The lysate was clarified by centrifugation and applied to Ni Sepharose6 Fast Flow resin (GE Healthcare). The resin was sequentially washed with buffer C, then with buffer C containing 50 mM Imidazole. Protein sample was eluted from the resin using buffer C containing 250 mM Imidazole. The eluted protein was buffer exchanged by gel-filtration on a Superdex 200 10/300 GL column (GE Healthcare) equilibrated in Buffer D (15 mM Bis-TRIS pH 6.0, 100 mM NaCl, 1 mM dithiothreitol (DTT)).
# (§5) Enzymatic assay was performed in a HEPES buffer (50 mM pH7.6 1 mM DTT, 2% glycerol, 0.5 mM EDTA) or in a Tris buffer (40 mM pH7.4 1 mM DTT, 5% glycerol, 0.05 mg/ml BSA) respectively, following manufacturer's instructions. Compounds were added to the reaction mixture just prior to the substrate. The enzymatic reaction kinetics was monitored through the apparition of fluorescence due to the hydrolysis of the peptidyl Ub-AMC or Ub-Rho bound over 20 or 30 minutes.
# (§6) Medium value out of duplicates is reported.
# MESSA DX5 cells = experiment: Cytotoxicity assay (PrestoBlue cell viability), MESSA DX5; type: cell-based, human; details: for EC50: Homo sapiens, MES-SA/Dx5, 48 hours treatment, chemoresistant line
# Experimental: as §1, §2, §3
# PC-3 cells = experiment: Cytotoxicity assay (PrestoBlue cell viability), PC-3; type: cell-based; details: Homo sapiens, 48 hours treatment
# Experimental: as §1, §2, §3
# [2] = target: T2, USP8^CD (purified catalytic domain of USP8) (Homo sapiens, UniProt P40818); experiment: Inhibition of purified USP8^CD enzymatic activity (Ub-AMC or Ub-Rho substrate); type: biochemical; details: for inhibition at 0.01 µM: 0.01 μM compound; for inhibition at 0.05 µM: 0.05 μM compound; for inhibition at 0.1 µM: 0.1 μM compound; for inhibition at 0.5 µM: 0.5 μM compound; for inhibition at 1 µM: 1 μM compound; for inhibition at 5 µM: 5 μM compound; for inhibition at 10 µM: 10 μM compound; for inhibition at 25 µM: 25 μM compound; for inhibition at 50 µM: 50 μM compound; for IC50: read-out: IC50 USP8 CD
# T2 construct: the purified catalytic domain of USP8 (USP8^CD, in-house purified); made in house; host or cells: E. coli BL21 Gold
# T2 sequence (P40818 777-1109 limits assumed): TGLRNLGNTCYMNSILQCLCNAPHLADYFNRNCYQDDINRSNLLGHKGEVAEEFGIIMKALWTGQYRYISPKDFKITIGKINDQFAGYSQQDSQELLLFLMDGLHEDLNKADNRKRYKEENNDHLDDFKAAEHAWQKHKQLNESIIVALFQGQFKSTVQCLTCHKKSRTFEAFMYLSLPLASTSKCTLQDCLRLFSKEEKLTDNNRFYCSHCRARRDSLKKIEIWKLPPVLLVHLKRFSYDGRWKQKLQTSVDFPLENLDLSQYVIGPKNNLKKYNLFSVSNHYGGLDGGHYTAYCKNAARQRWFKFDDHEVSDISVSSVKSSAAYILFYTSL
# Experimental: as §4
# For His-tagged USP8CD, cells were resuspended in buffer A (50 mM TRIS pH 8.0, 500 mM NaCl, 2 mM Imidazole) and lysed using a sonicator. The lysate was clarified by centrifugation and applied to Ni Sepharose6 Fast Flow resin (GE Healthcare). The resin was sequentially washed first with buffer A containing 10 mM Imidazole then with buffer A containing 20 mM Imidazole, and finally with buffer A containing 50 mM Imidazole. Protein sample was eluted from the resin using buffer A containing 300 mM Imidazole. The eluted protein was buffer exchanged by gel-filtration on a Superdex 200 10/300 GL column (GE Healthcare) equilibrated in Buffer B (20 mM HEPES pH 7.5, 300 mM NaCl, 2 mM dithiothreitol (DTT)).
# as §5, §6
# HEK293 cells = experiment: Cytotoxicity assay (PrestoBlue cell viability), HEK293; type: cell-based; details: Homo sapiens, 48 hours treatment
# Experimental: as §1, §2, §3
# MESSA cells = experiment: Cytotoxicity assay (PrestoBlue cell viability), MESSA; type: cell-based; details: Homo sapiens, MES-SA; 48 hours treatment; concentration inducing 50% cell mortality
# Experimental: as §1, §2, §3
# [3] = Ub-AMC substrate at 1 μM, Table 2b
# [4] = Ub-Rhodamine substrate at 0.1 μM, Table 2c
inhibition at 0.01 µM ([1]; Table 1c) [%],inhibition at 0.05 µM ([1]; Table 1c) [%],inhibition at 0.1 µM ([1]; Table 1c) [%],inhibition at 0.5 µM ([1]; Table 1c) [%],inhibition at 1 µM ([1]; Table 1b) [%],inhibition at 1 µM ([1]; Table 1c) [%],inhibition at 5 µM ([1]; Table 1c) [%],inhibition at 10 µM ([1]; Table 1c) [%],inhibition at 25 µM ([1]; Table 1b) [%],inhibition at 50 µM ([1]; Table 1b) [%],"IC50 [1, 3] [nM]",inhibition at 0.01 µM ([2]; Table 1d) [%],inhibition at 0.05 µM ([2]; Table 1d) [%],inhibition at 0.1 µM ([2]; Table 1d) [%],inhibition at 0.5 µM ([2]; Table 1d) [%],Structure (SMILES),EC50 (LNCaP cells) [nM],EC50 (H1975 cells) [nM],EC50 (MESSA DX5 cells) [nM],EC50 (PC-3 cells) [nM],EC50 (MESSA cells) [nM],further results
-19,-3,19,-20,53,44,17,9,53,63,> 10000,2,21,-8,63,COc1ccc(S(=O)(=O)Cc2nc3c(nc2CS(=O)(=O)c2ccc(OC)c(OC)c2)C(=O)c2ccccc2C3=O)cc1OC [OVM18],2100,> 3000,2500,3000,1300,"inhibition at 1 µM ([2]; Table 1b): 100%; inhibition at 1 µM ([2]; Table 1d): 83%; inhibition at 5 µM ([2]; Table 1b): 103%; inhibition at 5 µM ([2]; Table 1d): 77%; inhibition at 10 µM ([2]; Table 1d): 71%; inhibition at 25 µM ([2]; Table 1b): 96%; inhibition at 50 µM ([2]; Table 1b): 101%; IC50 [2, 3]: 500 nM; EC50 (HEK293 cells): 2500 nM"
11,6,-26,2,51,31,51,57,99,100,5000,-15,24,12,51,CCS(=O)(=O)Cc1nc2c(nc1CS(=O)(=O)CC)C(=O)c1ccccc1C2=O [VIN6075],2800,> 3000,> 3000,3000,3000,"inhibition at 5 µM ([1]; Table 1b): 75%; IC50 [1, 4]: 600 nM; inhibition at 1 µM ([2]; Table 1b): 85%; inhibition at 1 µM ([2]; Table 1d): 86%; inhibition at 5 µM ([2]; Table 1b): 102%; inhibition at 5 µM ([2]; Table 1d): 104%; inhibition at 10 µM ([2]; Table 1d): 110%; inhibition at 25 µM ([2]; Table 1b): 104%; inhibition at 50 µM ([2]; Table 1b): 106%; IC50 [2, 3]: 500 nM; IC50 [2, 4]: 80 nM; EC50 (HEK293 cells): > 3000 nM"
–,–,–,–,–,–,–,–,–,–,–,–,–,–,–,"CC(=O)O[C@H]1C(=O)[C@@]2(C)[C@H]([C@H](OC(=O)c3ccccc3)[C@]3(O)C[C@H](OC(=O)[C@H](O)[C@@H](NC(=O)c4ccccc4)c4ccccc4)C(C)=C1C3(C)C)[C@]1(OC(C)=O)CO[C@@H]1C[C@@H]2O [Paclitaxel, reference compound]",–,–,> 100000,–,1500,MESSA-DX5 cells death (MESSA DX5 cells; high concentration (100 μM)): did not induce MESSA-DX5 cells death
